Read-outs that look alike come from different tables or passages of the source.
Legend:
ob/ob mice = assay: ob/ob leptin-deficient genetic mouse model of metabolic syndrome; assay type: in vivo
Description: We next sought to confirm our above findings obtained from the diet-induced model of obesity by using the ob/ob leptin-deficient genetic mouse model of metabolic syndrome. […] Additionally, the mRNA expression profiles of glucose- and FA-related genes in liver (Fig. S4D,E) and WAT (Fig. S5) also differed between pioglitazone- and PBI-4547-treated mice.

GPR84 = target: T1, GPR84 (Homo sapiens, UniProt Q9NQS5); assay: BRET Gαi2 activation biosensor in HEK293 cells transfected with GPR84; assay type: cell-based; settings: compound alone vs vehicle
T1 construct: expressed in transfected cells; host or cells: HEK293
T1 sequence (Q9NQS5 whole entry, species assumed): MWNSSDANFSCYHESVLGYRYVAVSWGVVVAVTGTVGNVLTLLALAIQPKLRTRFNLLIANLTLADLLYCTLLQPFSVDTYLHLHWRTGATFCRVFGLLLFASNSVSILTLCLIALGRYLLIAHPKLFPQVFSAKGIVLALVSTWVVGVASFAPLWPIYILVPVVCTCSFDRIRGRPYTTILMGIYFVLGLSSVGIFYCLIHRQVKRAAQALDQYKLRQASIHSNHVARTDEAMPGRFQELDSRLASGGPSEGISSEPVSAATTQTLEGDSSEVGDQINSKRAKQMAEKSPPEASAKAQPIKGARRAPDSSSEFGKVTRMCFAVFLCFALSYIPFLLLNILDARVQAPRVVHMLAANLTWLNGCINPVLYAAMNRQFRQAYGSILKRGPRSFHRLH
Description: PBI-4547 (2-[3,5-dipentylphenyl]acetate sodium salt) is a medium-chain FA (MCFA) mimetic (Fig. 1A). Accordingly, we examined the signaling properties of PBI-4547 on receptors known to be activated by MCFAs. […] This biosensor consisted of an Rluc8-tagged Gαi2 subunit, a GFP10-tagged Gγ2 subunit, and an untagged Gβ1. Agonist stimulation and receptor activation triggers a physical separation between the Gα-Rluc8 donor and the GFP10-Gγ2 acceptor, resulting in a decrease in BRET signal, whose amplitude is correlated to ligand efficacy. […] (A) Chemical structure of PBI-4547. (B) Gi pathway activation was monitored in HEK293 cells transfected with GPR84 and the Gαi2 activation biosensor. […] (C) β-arrestin 2 recruitment to activated GPR120 receptor was monitored in HEK293 cells transfected with RLuc8-β-arrestin 2 and GPR120-GFP10. (D) Cells transfected with GPR40 and Gαq or Gαi2 activation biosensor were exposed to increasing concentrations of PBI-4547 or to 500 µM of sodium decanoate, and BRET variation compared with vehicle was measured. Cells were exposed to increasing concentrations of PBI-4547 or to 100 µM of GW9508, and BRET variation compared with vehicle was measured. (E) LanthaScreen TR-FRET competitive binding assay of PBI-4547 and PPAR control agonists to the LBD of PPARα, PPARδ and PPARγ. (F) Cell-based GAL4 transactivation assay in HEK293 cells transfected with the LBD of PPARα, PPARδ or PPARγ, and treated with increasing concentrations of PBI-4547 or PPAR control agonists. Data in (B–D) are expressed as means ± SEM of 4–5 experiments; data in (E,F) are from a representative experiment from a total of 3 to 4 independent experiments. BRET measurements in transiently transfected HEK293 cells were performed as previously described. Ligands were incubated with cells at room temperature for 10 min (G protein biosensors) or 25 min (β-arrestin/GPR120) before collecting BRET[2] readings between Rluc8 and GFP10.

GPR40 = target: T2, GPR40 (Homo sapiens, UniProt O14842); set-up: method as in PMID 29454750; settings: previously reported, cited from earlier work
T2 construct: expressed in transfected cells; host or cells: HEK293
T2 sequence (O14842 whole entry, species assumed): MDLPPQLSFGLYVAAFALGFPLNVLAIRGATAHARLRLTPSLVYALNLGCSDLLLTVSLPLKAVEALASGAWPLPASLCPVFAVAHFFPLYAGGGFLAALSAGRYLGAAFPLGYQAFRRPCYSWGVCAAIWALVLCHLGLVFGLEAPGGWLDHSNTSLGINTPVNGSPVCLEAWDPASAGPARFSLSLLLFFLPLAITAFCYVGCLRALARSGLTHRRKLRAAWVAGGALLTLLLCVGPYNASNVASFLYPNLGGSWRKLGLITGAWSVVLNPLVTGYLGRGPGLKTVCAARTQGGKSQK

Structure (SMILES): CCc1ccc(CCOc2ccc(CC3SC(=O)NC3=O)cc2)nc1 (stereo not shown) [pioglitazone, reference compound]
- bodyweight (ob/ob mice): increased trend towards weight gain

Structure (SMILES): CCCCCCCCCC(=O)[O-].[Na+] [sodium decanoate]
- GPR84/Gαi2-mediated BRET signal modulation (agonist mode) (GPR84): induced a BRET signal decrease
- EC50 (GPR40; Gαi2, read-out: EC50, GPR40 Gαi2): 16 µM
- EC50 (GPR40; Gαq, read-out: EC50, GPR40 Gαq): 102 µM
